What was measured:
Pseudomonas aeruginosa [1] = experiment: Potentiation of meropenem-induced antibacterial activity against Pseudomonas aeruginosa 5621 expressing VIM-2 assessed as meropenem MIC at 100 ug/ml incubated for 18 to 20 hrs in presence of meropenem by CLSI based broth microtiter dilution method (reference value: 64 ug/ml); type: functional; settings: dose 100 µg/ml, time 18-20 hrs
Escherichia coli [2] = experiment: Potentiation of meropenem-induced antibacterial activity against Escherichia coli C1580 expressing VIM-2 assessed as meropenem MIC at 10 ug/ml incubated for 18 to 20 hrs by CLSI based broth microtiter dilution method (reference value: 32 ug/ml); type: functional; settings: dose 10 µg/ml, time 18-20 hrs
[3] = Inhibition of bacterial recombinant full length N-terminal-TEV-His6-tagged VIM-5 expressed in Escherichia coli Transetta using FC-5 as substrate preincubated with enzyme for 10 mins followed by substrate addition by fluorescence based analysis; design: species or system Bacteria
Pseudomonas aeruginosa [4] = experiment: Potentiation of meropenem-induced antibacterial activity against Pseudomonas aeruginosa 5621 expressing VIM-2 assessed as fold reduction in meropenem MIC at 100 ug/ml incubated for 18 to 20 hrs by CLSI based broth microtiter dilution method; type: functional; settings: dose 100 µg/ml; time 18-20 hrs
[5] = Inhibition of bacterial recombinant full length C-terminal-TEV-His6-tagged VIM-1 expressed in Escherichia coli Transetta using FC-5 as substrate preincubated with enzyme for 10 mins followed by substrate addition by fluorescence based analysis; design: species or system Bacteria
[6] = Inhibition of bacterial NDM-1 (1 to 270 residues) expressed in Escherichia coli Transetta (DE3) using FC-5 as substrate preincubated with enzyme for 10 mins followed by substrate addition by fluorescence based analysis; design: species or system Bacteria
[7] = Inhibition of bacterial VIM-2 (27 to 266 residues) expressed in Escherichia coli Transetta (DE3) using FC-5 as substrate preincubated with enzyme for 10 mins followed by substrate addition by fluorescence based analysis; design: species or system Bacteria
Escherichia coli [8] = experiment: Potentiation of meropenem-induced antibacterial activity against Escherichia coli C1541 expressing VIM-2 assessed as meropenem MIC at 10 ug/ml incubated for 18 to 20 hrs by CLSI based broth microtiter dilution method (reference value: 16 ug/ml); type: functional; settings: dose 10 µg/ml, time 18-20 hrs
Escherichia coli [9] = experiment: Potentiation of meropenem-induced antibacterial activity against Escherichia coli C1541 expressing IMP-1 assessed as meropenem MIC at 10 ug/ml incubated for 18 to 20 hrs by broth microtiter dilution method (reference value: 32 ug/ml); type: functional; settings: dose 10 µg/ml, time 18-20 hrs
Escherichia coli [10] = experiment: Potentiation of meropenem-induced antibacterial activity against Escherichia coli C1542 expressing VIM-2 assessed as meropenem MIC at 10 ug/ml incubated for 18 to 20 hrs by CLSI based broth microtiter dilution method (reference value: 16 ug/ml); type: functional; settings: dose 10 µg/ml, time 18-20 hrs
Pseudomonas aeruginosa [11] = experiment: Potentiation of meropenem-induced antibacterial activity against Pseudomonas aeruginosa W35 expressing VIM-2 assessed as meropenem MIC at 100 ug/ml incubated for 18 to 20 hrs in presence of meropenem by CLSI based broth microtiter dilution method (reference value: 64 ug/ml); type: functional; settings: dose 100 µg/ml, time 18-20 hrs
Escherichia coli [12] = experiment: Potentiation of meropenem-induced antibacterial activity against Escherichia coli C1541 expressing IMP-1 assessed as fold reduction in meropenem MIC at 10 ug/ml incubated for 18 to 20 hrs by CLSI based broth microtiter dilution method; type: functional; settings: dose 10 µg/ml; time 18-20 hrs
Escherichia coli [13] = experiment: Potentiation of meropenem-induced antibacterial activity against Escherichia coli C1541 expressing VIM-2 assessed as fold reduction in meropenem MIC at 10 ug/ml incubated for 18 to 20 hrs by CLSI based broth microtiter dilution method; type: functional; settings: dose 10 µg/ml; time 18-20 hrs
Escherichia coli [14] = experiment: Potentiation of meropenem-induced antibacterial activity against Escherichia coli C1580 expressing VIM-2 assessed as fold reduction in meropenem MIC at 10 ug/ml incubated for 18 to 20 hrs by CLSI based broth microtiter dilution method; type: functional; settings: dose 10 µg/ml; time 18-20 hrs
Pseudomonas aeruginosa [15] = experiment: Potentiation of meropenem-induced antibacterial activity against Pseudomonas aeruginosa W35 expressing VIM-2 assessed as fold reduction in meropenem MIC at 100 ug/ml incubated for 18 to 20 hrs by CLSI based broth microtiter dilution method; type: functional; settings: dose 100 µg/ml; time 18-20 hrs
Escherichia coli [16] = experiment: Potentiation of meropenem-induced antibacterial activity against Escherichia coli C1542 expressing VIM-2 assessed as fold reduction in meropenem MIC at 10 ug/ml incubated for 18 to 20 hrs by CLSI based broth microtiter dilution method; type: functional; settings: dose 10 µg/ml; time 18-20 hrs
[17] = Inhibition of bacterial IMP-1 (1 to 246 residues) expressed in Escherichia coli Transetta (DE3) using FC-5 as substrate preincubated with enzyme for 10 mins followed by substrate addition by fluorescence based analysis; design: species or system Bacteria
[18] = Inhibition of bacterial VIM-2 (27 to 266 residues) expressed in Escherichia coli Transetta (DE3) using FC-5 as substrate preincubated with enzyme for 10 mins followed by substrate addition in presence of 1 uM Zn2+ by fluorescence based analysis; design: species or system Bacteria
Escherichia coli [19] = experiment: Synergistic antibacterial activity against Escherichia coli C1541 expressing VIM-2 assessed as fractional inhibitory concentration index incubated for 18 to 20 hrs in presence of meropenem by checkerboard microdilution assay; type: functional; settings: time 18-20 hrs
Escherichia coli [20] = experiment: Synergistic antibacterial activity against Escherichia coli C1541 expressing VIM-2 assessed as fractional inhibitory concentration index incubated for 18 to 20 hrs in presence of meropenem and 1 uM of zinc sulfate by checkerboard microdilution assay; type: functional; settings: time 18-20 hrs
Escherichia coli [21] = experiment: Potentiation of meropenem-induced antibacterial activity against Escherichia coli C1541 expressing IMP-1 assessed as fold reduction in meropenem MIC at 100 ug/ml incubated for 18 to 20 hrs by CLSI based broth microtiter dilution method; type: functional; settings: dose 100 µg/ml; time 18-20 hrs
[22] = Inhibition of bacterial VIM-2 (27 to 266 residues) expressed in Escherichia coli Transetta (DE3) using FC-5 as substrate preincubated with enzyme for 10 mins followed by substrate addition in presence of 100 uM Zn2+ by fluorescence based analysis; design: species or system Bacteria
Escherichia coli [23] = experiment: Synergistic antibacterial activity against Escherichia coli C1541 expressing VIM-2 assessed as fractional inhibitory concentration index incubated for 18 to 20 hrs in presence of meropenem and 100 uM of zinc sulfate by checkerboard microdilution assay; type: functional; settings: time 18-20 hrs

Compound | MIC (Pseudomonas aeruginosa [1]) | MIC (Escherichia coli [2]) | IC50 [3] | IC50 [5] | IC50 [6] | IC50 [7] | MIC (Escherichia coli [8]) | MIC (Escherichia coli [9]) | MIC (Escherichia coli [10]) | MIC (Pseudomonas aeruginosa [11]) | IC50 [17] | fold change (FC) (Pseudomonas aeruginosa [4]) | fold change (FC) (Escherichia coli [12]) | fold change (FC) (Escherichia coli [13]) | fold change (FC) (Escherichia coli [14]) | fold change (FC) (Pseudomonas aeruginosa [15]) | fold change (FC) (Escherichia coli [16]) | further results
Cc1cnc(C(=O)O)n1Cc1ccccc1 | 32 mg/L | 1 mg/L | 2.2 µM | 3.18 µM | 29.7 µM | 0.48 µM | < 0.25 mg/L | 32 mg/L | 0.5 mg/L | 16 mg/L | 86.5 µM | 2 | 1 | >64 | 32 | 4 | 32 | –
C=CCCn1c(C)cnc1C(=O)O | – | 8 mg/L | 3.77 µM | 37.3 µM | 144 µM | 0.8 µM | 1 mg/L | 32 mg/L | 2 mg/L | – | 48.6 µM | – | 1 | 16 | 4 | – | 8 | –
O=C(O)c1nccn1Cc1ccccc1 | 64 mg/L | 16 mg/L | 1.55 µM | 4.14 µM | 63.5 µM | 0.48 µM | 16 mg/L | 32 mg/L | 16 mg/L | 32 mg/L | 32.1 µM | 1 | 1 | 1 | 2 | 2 | 1 | –
C=CCCn1ccnc1C(=O)O | – | 32 mg/L | 4.72 µM | 14.8 µM | > 300 µM | 1.05 µM | 16 mg/L | 32 mg/L | 8 mg/L | – | > 300 µM | – | 1 | 1 | 1 | – | 2 | –

Continued, in another order:

MIC (Pseudomonas aeruginosa [1]) | MIC (Escherichia coli [2]) | IC50 [3] | IC50 [5] | IC50 [6] | IC50 [7] | MIC (Escherichia coli [8]) | MIC (Escherichia coli [9]) | MIC (Escherichia coli [10]) | MIC (Pseudomonas aeruginosa [11]) | IC50 [17] | Compound | fold change (FC) (Pseudomonas aeruginosa [4]) | fold change (FC) (Escherichia coli [12]) | fold change (FC) (Escherichia coli [13]) | fold change (FC) (Escherichia coli [14]) | fold change (FC) (Pseudomonas aeruginosa [15]) | fold change (FC) (Escherichia coli [16]) | further results
32 mg/L | 4 mg/L | 0.053 µM | 1.37 µM | 98.9 µM | 0.014 µM | 0.5 mg/L | 16 mg/L | 1 mg/L | 16 mg/L | 0.085 µM | O=C(O)c1nccn1Cc1cc(Br)cc(Br)c1 | 2 | 2 | 32 | 8 | 4 | 16 | IC50 [18]: 0.048 µM; fractional inhibitory concentration index (FICI) (Escherichia coli [19]): 0.05; fractional inhibitory concentration index (FICI) (Escherichia coli [20]): 0.06; fold change (FC) (Escherichia coli [21]): 8; IC50 [22]: 0.11 µM; fractional inhibitory concentration index (FICI) (Escherichia coli [23]): 0.06
64 mg/L | 4 mg/L | 2.47 µM | 24.9 µM | 111 µM | 0.43 µM | 2 mg/L | 32 mg/L | 4 mg/L | 32 mg/L | 20.3 µM | O=C(O)c1nccn1Cc1cc(Br)cs1 | 1 | 1 | 8 | 8 | 2 | 4 | –

Reference: ChEMBL document CHEMBL5154646, “Structure-guided optimization of 1H-imidazole-2-carboxylic acid derivatives affording potent VIM-Type metallo-β-lactamase inhibitors” (Eur J Med Chem, 2022)
